These results are taken from PMC6930570, “2-Arylidene-1-indandiones as Pleiotropic Agents with Antioxidant and Inhibitory Enzymes Activities” (Molecules, 2019).

Experiment [1] deals with T1, bovine thrombin (Bos taurus, UniProt P00735).
T1 construct: purchased Sigma Chemical, Co. (St. Louis)
The experiment can be described thus: In vitro inhibition of thrombin. The class given is biochemical. To be noted: substrate tosyl-Gly-Pro-Arg-pNA, no = no action under the experimental conditions, read-out: TH% 100 µM (thrombin inhibition). On the procedure: It is well known that indandione derivatives exert their anticoagulant activity indirectly by inhibiting prothrombin synthesis in the liver. […] Derivatives 1, 2, 5, 8, 9, 10, and 12 were tested in vitro as possible thrombin inhibitors. Among the tested derivatives compound 8 presented 100% inhibition followed by compounds […] and 10.
As a substrate tosyl-Gly-Pro-Arg-pNA acetate salt was used at 1 mM final concentration. Compounds were dissolved at a final concentration of […] in a Tris-buffer (0.05 M Tris, 0.154 M NaCl, ethanol 5%, pH = 8.0). Three minutes after the addition of bovine thrombin (2.5 unit/mg), the reaction was ended by adding 1 mL acetic acid 50%. The absorption of the released p-nitro-aniline was measured at 405 nm (Table 3). Warfarin and Inogatran were used as reference compounds.

The nature of experiment [2]: Superoxide anion radical scavenging activity (PMS/NADPH/NBT). In kind it is biochemical. To be noted: 100 μM (stated for compound 3). As for the experimental part:
The compounds have been tested to scavenge superoxide anion radicals. However, no results were recorded under the experimental conditions.
The superoxide anion producing system was set up by mixing PMS, NADPH, and air oxygen. The production of superoxide anion was estimated by the nitrobluetetrazole NBT method. The reaction mixture containing compounds, 3 μM PMS, 78 μM NADPH, and 25 μM NBT in […] phosphate buffer pH 7.4 was incubated for 2 min at room temperature and the absorption was measured at 560 nm against a blank containing PMS. The tested compounds were pre-incubated for 2 min before adding NADPH. Caffeic acid was used as an appropriate standard (76%).

For orientation: inhibition means how much of the control response was suppressed. As for `N=C(N)NCCCNC(=O)[C@@H]1CCCCN1C(=O)[C@@H](CC1CCCCC1)NCC(=O)O` [Inogatran, reference compound], in experiment [1], the inhibition at 100 µM worked out at 98%.
`O=C(O)/C=C/c1ccc(O)c(O)c1` [Caffeic acid, reference compound]: the “superoxide anion scavenging activity” value in experiment [2] was 76%.
